Counter-ions that a name gives are not always drawn.
Columns and labels:
Bcl-XL = target: T1, Bcl-XL (Homo sapiens, UniProt Q07817); experiment: Bcl-XL FP assay (competitive fluorescence polarization binding assay, FITC-Bim BH-3 peptide tracer); conditions: C-terminal 6×HIS tagged Bcl-XL (aa 1-209), 0.8 nM; 2 nM FITC-Bim peptide tracer
T1 construct: a C-terminal 6×HIS tagged Bcl-XL (aa 1-209); 6xHis (C)
Source text: (§1) Bcl-xL and Bcl-2 FP binding affinity of compound(s) of Formulae (I), (I-a), (I-b), (I-c), (I-d) and/or (I-e) may be determined using a variety of known methods. One such assay is a sensitive and quantitative in vitro binding assay using fluorescence polarization (“FP”) described by Wang, J.-L.; Zhang, Z-J.; Choksi, S.; Sjam. S.; Lu, Z.; Croce, C. M.; Alnemri, E. S.; Komgold, R.; Huang, Z. Cell permeable Bcl-2 binding peptides: a chemical approach to apoptosis induction in tumor cells. Cancer Res. 2000, 60, 1498-1502).
(§2) Additionally, the binding affinity of compound(s) of Formulae (I), (I-a), (I-b), (I-c), (I-d) and/or (I-e) to Bcl-2 protein in vitro was determined by a competitive binding assay based on fluorescence polarization. For example, fluorescence polarization (“FP”) assays may be developed using a c-terminal 6×HIS tagged Bcl-2 (aa 1-204) and a C-terminal 6×HIS tagged Bcl-XL (aa 1-209). […] Dilutions of either Bcl-2 (1.3 nM) or Bcl-XL (0.8 nM) may be added to serial dilutions of antagonist and incubated for one hour prior to the addition of 2 nM of fluorescent peptide tracer (Anaspec, Fremont, Calif.) in the assay buffer. Final assay buffer conditions may be 20 mM HEPES, pH 7.5, 1 mM DTT, 0.005% Tween-20 and 50 mM NaCl. Samples may be read after 20-minute incubation. Fluorescence polarization values may be plotted as a function of the antagonist concentration.

Bcl-2 = target: T2, Bcl-2 (Homo sapiens, UniProt P10415); experiment: Bcl-2 FP assay (competitive fluorescence polarization binding assay, FITC-Bim BH-3 peptide tracer); conditions: c-terminal 6×HIS tagged Bcl-2 (aa 1-204), 1.3 nM; 2 nM FITC-Bim peptide tracer
T2 construct: a c-terminal 6×HIS tagged Bcl-2 (aa 1-204); 6xHis (C)
Source text: as §1, §2

T1 sequence (Q07817 1-209): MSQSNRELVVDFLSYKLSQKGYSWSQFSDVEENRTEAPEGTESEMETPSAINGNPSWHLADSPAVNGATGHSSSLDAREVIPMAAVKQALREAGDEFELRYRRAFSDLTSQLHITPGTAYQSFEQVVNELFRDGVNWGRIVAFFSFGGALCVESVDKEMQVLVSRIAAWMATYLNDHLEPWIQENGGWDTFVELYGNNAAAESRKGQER
T2 sequence (P10415 1-204): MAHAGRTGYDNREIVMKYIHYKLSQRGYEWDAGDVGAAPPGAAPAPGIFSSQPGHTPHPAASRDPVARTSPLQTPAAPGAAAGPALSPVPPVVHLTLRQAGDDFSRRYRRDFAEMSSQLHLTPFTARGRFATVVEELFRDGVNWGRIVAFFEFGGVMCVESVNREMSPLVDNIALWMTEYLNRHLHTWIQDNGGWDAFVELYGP

Row | IC50 (Bcl-XL) | IC50 (Bcl-2) | Molecule
1 | 1 nM | < 1 nM | O=C(NS(=O)(=O)c1ccc(N[C@H](CCN2CCN(CCO)CC2)CSc2ccccc2)c(S(=O)(=O)C(F)(F)F)c1)c1ccc(N2CCC([C@@H](O)c3ccccc3-c3ccc(Cl)cc3)CC2)cc1 [Example 1, 4-(4-((R)-(4′-chlorobiphenyl-2-yl)(hydroxy)methyl)piperidin-1-yl)-N-(4-((R)-4-(4-(2-hydroxyethyl)piperazin-1-yl)-1-(phenylthio)butan-2-ylamino)-3-(trifluoromethylsulfonyl)phenylsulfonyl)benzamide, formic acid salt]
2 | 1 nM | 0.3 nM | CN(C)CC[C@H](CSc1ccccc1)Nc1ccc(S(=O)(=O)NC(=O)c2ccc(N3CCC([C@@H](O)c4ccccc4-c4ccc(Cl)cc4)CC3)cc2)cc1[N+](=O)[O-] [Example 2, 4-(4-((R)-(4′-chlorobiphenyl-2-yl)(hydroxy)methyl)piperidin-1-yl)-N-(4-((R)-4-(dimethylamino)-1-(phenylthio)butan-2-ylamino)-3-nitrophenylsulfonyl)benzamide]
3 | 1 nM | < 0.3 nM | CN(CCO)CC[C@H](CSc1ccccc1)Nc1ccc(S(=O)(=O)NC(=O)c2ccc(N3CCC([C@@H](O)c4ccccc4-c4ccc(Cl)cc4)CC3)cc2)cc1S(=O)(=O)C(F)(F)F [Example 3, 4-(4-((R)-(4′-chlorobiphenyl-2-yl)(hydroxy)methyl)piperidin-1-yl)-N-(4-((R)-4-((2-hydroxyethyl)(methyl)amino)-1-(phenylthio)butan-2-ylamino)-3-(trifluoromethylsulfonyl)phenylsulfonyl)benzamide]
4 | 0.8 nM | 0.5 nM | CCN(CCO)CC[C@H](CSc1ccccc1)Nc1ccc(S(=O)(=O)NC(=O)c2ccc(N3CCC([C@@H](O)c4ccccc4-c4ccc(Cl)cc4)CC3)cc2)cc1S(=O)(=O)C(F)(F)F [Example 4, 4-(4-((R)-(4′-chlorobiphenyl-2-yl)(hydroxy)methyl)piperidin-1-yl)-N-(4-((R)-4-(ethyl(2-hydroxyethyl)amino)-1-(phenylthio)butan-2-ylamino)-3-(trifluoromethylsulfonyl)phenylsulfonyl)benzamide]
5 | 1 nM | 2 nM | O=C(NS(=O)(=O)c1ccc(N[C@H](CCN(CCOP(=O)(O)O)CCOP(=O)(O)O)CSc2ccccc2)c(S(=O)(=O)C(F)(F)F)c1)c1ccc(N2CCC([C@@H](O)c3ccccc3-c3ccc(Cl)cc3)CC2)cc1 [Example 7, 2,2′-((R)-3-(4-(N-(4-(4-((R)-(4′-chlorobiphenyl-2-yl)(hydroxy)methyl)piperidin-1-yl)benzoyl)sulfamoyl)-2-(trifluoromethylsulfonyl)phenylamino)-4-(phenylthio)butylazanediyl)bis(ethane-2,1-diyl)bis(dihydrogen phosphate), hydrochloride salt]
6 | 1 nM | 0.9 nM | CCN(CCOP(=O)(O)O)CC[C@H](CSc1ccccc1)Nc1ccc(S(=O)(=O)NC(=O)c2ccc(N3CCC([C@@H](O)c4ccccc4-c4ccc(Cl)cc4)CC3)cc2)cc1S(=O)(=O)C(F)(F)F [Example 8, 2-(((R)-3-(4-(N-(4-(4-((R)-(4′-chlorobiphenyl-2-yl)(hydroxy)methyl)piperidin-1-yl)benzoyl)sulfamoyl)-2-(trifluoromethylsulfonyl)phenylamino)-4-(phenylthio)butyl)(ethyl)amino)ethyl dihydrogen phosphate, hydrochloride salt]
7 | 1 nM | 0.9 nM | CN(CCOP(=O)(O)O)CC[C@H](CSc1ccccc1)Nc1ccc(S(=O)(=O)NC(=O)c2ccc(N3CCC([C@@H](O)c4ccccc4-c4ccc(Cl)cc4)CC3)cc2)cc1S(=O)(=O)C(F)(F)F [Example 9, 2-(((R)-3-(4-(N-(4-(4-((R)-(4′-chlorobiphenyl-2-yl)(hydroxy)methyl)piperidin-1-yl)benzoyl)sulfamoyl)-2-(trifluoromethylsulfonyl)phenylamino)-4-(phenylthio)butyl)(methyl)amino)ethyl dihydrogen phosphate, hydrochloride salt]
8 | 1 nM | 0.7 nM | O=C(NS(=O)(=O)c1ccc(N[C@H](CCN2CCN(CCOP(=O)(O)O)CC2)CSc2ccccc2)c(S(=O)(=O)C(F)(F)F)c1)c1ccc(N2CCC([C@@H](O)c3ccccc3-c3ccc(Cl)cc3)CC2)cc1 [Example 10, 2-(4-((R)-3-(4-(N-(4-(4-((R)-(4′-chlorobiphenyl-2-yl)(hydroxy)methyl)piperidin-1-yl)benzoyl)sulfamoyl)-2-(trifluoromethylsulfonyl)phenylamino)-4-(phenylthio)butyl)piperazin-1-yl)ethyl dihydrogen phosphate]

Row | Molecule | IC50 (Bcl-XL) | IC50 (Bcl-2)
9 | 4-(4-((R)-(4′-chlorobiphenyl-2-yl)(cyano)methyl)piperidin-1-yl)-N-(4-((R)-4-morpholino-1-(phenylthio)butan-2-ylamino)-3-(trifluoromethylsulfonyl)phenylsulfonyl)benzamide and 4-(4-((S)-(4′-chlorobiphenyl-2-yl)(cyano)methyl)piperidin-1-yl)-N-(4-((R)-4-morpholino-1-(phenylthio)butan-2-ylamino)-3-(trifluoromethylsulfonyl)phenylsulfonyl)benzamide, mixture of diastereomers [Example 17] | 1 nM | –
10 | O=C(NS(=O)(=O)c1ccc(N[C@H](CCN(CCO)CCO)CSc2ccccc2)c(S(=O)(=O)C(F)(F)F)c1)c1ccc(N2CCC([C@@H](O)c3ccccc3-c3ccc(Cl)cc3)CC2)cc1 [Example 5, N-(4-((R)-4-(bis(2-hydroxyethyl)amino)-1-(phenylthio)butan-2-ylamino)-3-(trifluoromethylsulfonyl)phenylsulfonyl)-4-(4-((R)-(4′-chlorobiphenyl-2-yl)(hydroxy)methyl)piperidin-1-yl)benzamide, formic acid salt] | 1 nM | 0.8 nM
11 | CN(CCO)CC[C@H](CSc1ccccc1)Nc1ccc(S(=O)(=O)NC(=O)c2ccc(N3CCC([C@@H](N)c4ccccc4-c4ccc(Cl)cc4)CC3)cc2)cc1S(=O)(=O)C(F)(F)F [Example 11, 4-(4-((R)-amino(4′-chlorobiphenyl-2-yl)methyl)piperidin-1-yl)-N-(4-((R)-4-((2-hydroxyethyl)(methyl)amino)-1-(phenylthio)butan-2-ylamino)-3-(trifluoromethylsulfonyl)phenylsulfonyl)benzamide, formic acid salt] | 3 nM | 4 nM
12 | CCN(CCO)CC[C@H](CSc1ccccc1)Nc1ccc(S(=O)(=O)NC(=O)c2ccc(N3CCC([C@@H](N)c4ccccc4-c4ccc(Cl)cc4)CC3)cc2)cc1S(=O)(=O)C(F)(F)F [Example 12, 4-(4-((R)-amino(4′-chlorobiphenyl-2-yl)methyl)piperidin-1-yl)-N-(4-((R)-4-(ethyl(2-hydroxyethyl)amino)-1-(phenylthio)butan-2-ylamino)-3-(trifluoromethylsulfonyl)phenylsulfonyl)benzamide, formic acid salt] | 3 nM | 3 nM
13 | N[C@@H](c1ccccc1-c1ccc(Cl)cc1)C1CCN(c2ccc(C(=O)NS(=O)(=O)c3ccc(N[C@H](CCN4CCN(CCO)CC4)CSc4ccccc4)c(S(=O)(=O)C(F)(F)F)c3)cc2)CC1 [Example 13, 4-(4-((R)-amino(4′-chlorobiphenyl-2-yl)methyl)piperidin-1-yl)-N-(4-((R)-4-(4-(2-hydroxyethyl)piperazin-1-yl)-1-(phenylthio)butan-2-ylamino)-3-(trifluoromethylsulfonyl)phenylsulfonyl)benzamide, formic acid salt] | 15 nM | 16 nM
14 | O=C(NS(=O)(=O)c1ccc(N[C@H](CCN2CCOC[C@H]2CO)CSc2ccccc2)c(S(=O)(=O)C(F)(F)F)c1)c1ccc(N2CCC([C@@H](O)c3ccccc3-c3ccc(Cl)cc3)CC2)cc1 [Example 24, 4-(4-((R)-(4′-chlorobiphenyl-2-yl)(hydroxy)methyl)piperidin-1-yl)-N-(4-((R)-4-((R)-3-(hydroxymethyl)morpholino)-1-(phenylthio)butan-2-ylamino)-3-(trifluoromethylsulfonyl)phenylsulfonyl)benzamide, formic acid salt] | – | 0.4 nM
15 | O=C(NS(=O)(=O)c1ccc(N[C@H](CCN2CCOC[C@@H]2CO)CSc2ccccc2)c(S(=O)(=O)C(F)(F)F)c1)c1ccc(N2CCC([C@@H](O)c3ccccc3-c3ccc(Cl)cc3)CC2)cc1 [Example 25, 4-(4-((R)-(4′-chlorobiphenyl-2-yl)(hydroxy)methyl)piperidin-1-yl)-N-(4-((R)-4-((S)-3-(hydroxymethyl)morpholino)-1-(phenylthio)butan-2-ylamino)-3-(trifluoromethylsulfonyl)phenylsulfonyl)benzamide, hydrochloride salt] | – | 0.4 nM

From patent US20130310344A1, “N-ACYLSULFONAMIDE APOPTOSIS PROMOTERS” (ASTRAZENECA AB, priority 2010, published 2013)
